Where “and” joins values, the source holds several entries; their conditions need not be identical. Equal entries are not always repeated.
Assays:
[1] = type: physicochemical
Pseudomonas aeruginosa = type: cell-based
Staphylococcus aureas = type: cell-based
[2] = test system: Pseudomonas aeruginosa and Staphylococcus aureas; type: cell-based

Row | Compound | % Separation 1 h [1] | % Separation 24 h [1] | Adjuvant 1 h, emulsion stability, mL separation [mL] | Anionic 1 h, emulsion stability, mL separation [mL] | Nonionic 1 h, emulsion stability, mL separation [mL] | Adjuvant 24 h, emulsion stability, mL separation [mL] | Anionic 24 h, emulsion stability, mL separation [mL] | Nonionic 24 h, emulsion stability, mL separation [mL] | % Kill, 400 ppm (Pseudomonas aeruginosa) [%] | % Kill, DI water (Pseudomonas aeruginosa) [%] | % Kill, 400 ppm (Staphylococcus aureas) [%] | % Kill, DI water (Staphylococcus aureas) [%] | Overall Rating [2]
1 | CCC(CCCCCCCCC(=O)OCCOC)S(=O)(=O)[O-].[Na+] (centres unmarked) [C12-33, C12 eFAME Sulfonate] | 3.2 C and 3.9 C | 4 C and 4.1 C | 0 | 0 | 0.25 | 0 | 0 | 0.25 | – | – | – | – | –
2 | COCCOC(=O)CCCCCCCCC(CCCCCCCC(=O)OCCOC)S(=O)(=O)[O-].[Na+] (centres unmarked) [Mix-61, C18 eFAME Sulfonate] | 3.8 C and 3.7 C | 4 C and 3.9 C | – | – | – | – | – | – | – | – | – | – | –
3 | C10 6EO eFAME [C10-9] | – | – | – | – | – | – | – | – | 29.1 | 37.2 | 23.4 | 38.4 | good
4 | C10 24EO eFAME Sulfonate [C10-30] | 3.8 C and 2.8 C | 4 C and 3 C | 0 | 0 | 0.25 | 0 | 0 | 0.25 | – | – | – | – | –
5 | C10 24EO eFAME [C10-11] | – | – | – | – | – | – | – | – | 21.3 | 28.9 | 30.9 | 42.5 | good
6 | C12 6EO eFAME Sulfonate [C12-10] | 4 C and 3.8 C | 4.1 C and 4 C | 0 | 0 | – | 0 | 0 | 0.25 | – | – | – | – | –
7 | C12 6EO eFAME [C12-9] | – | – | – | – | – | – | – | – | 23.2 | 32.6 | 3.2 | 36.2 | good
8 | C12 27EO eFAME Sulfonate [C12-32] | 3 C and 2.9 C | 3.2 C | 0 | 0 | 0.5 | 0 | 0 | 0.5 | – | – | – | – | –
9 | C12 27EO eFAME [C12-11] | – | – | – | – | – | – | – | – | 30.1 | 34.9 | 36.2 | 42.7 | good

From patent publication US9506013B2 (priority 2010, dated 2016)
